Type in all cases: in vivo
The test system of one data set is male C57BL6/J mice. Briefly: Plasma/serum insulin and c-peptide after acute neddylation inhibitor treatment. The procedure:
Male C57BL6/J mice on chow diet were treated with 45 mg/kg TAS4464 via subcutaneous injection at 9 am. Mice were then fasted for 6 hours and serum insulin was measured. Blood samples were collected at 0 min and 120 min and used for insulin measurement (n=4). Left-hand bars are controls. Right-hand bars are TAS4464 treatments.
Male C57BL6/J mice on Western diet were treated with 15 mg/kg TAS4464 via subcutaneous injection at 9 am. Mice were then fasted for 6 hours and serum c-peptide were measured (n=5).
Male C57BL6/J mice on chow diet were treated with 60 mg/kg MLN4924 via subcutaneous injection at 9 am. Mice were then fasted for 6 hours and serum c-peptide were measured (n=8)
(§1) Aspartate aminotransferase (AST) and alanine aminotransferase (ALT) assay kits were purchased from Pointe Scientific (Canton, MI). Free fatty acid assay kit was purchased from Biovision Inc. (Milpitas, CA). Insulin ELISA kit was purchased from Crystal Chem Inc. (Elk Grove Village, IL).
A hyperinsulinemic-euglycemic clamp study was conducted in which obese mice were treated with vehicle or MLN4924.

Data set [1] has as its system male C57BL/6J mice fed Chow or Western diet. Kind of data set: MLN4924 intervention for 9 weeks in 16-week WD-fed mice (Experimental II). The procedure:
Chronic MLN4924 treatment attenuates hepatic steatosis in Western diet-fed mice. Male C57BL/6J mice were fed Chow (C) or Western diet (WD) for 16 weeks. MLN4924 treatment (60 mg/kg, SQ, every other day) was initiated after mice were fed WD for 7 weeks as indicated. Control mice were injected with vehicle. After 16 weeks of feeding, mice were fasted from 9 am to 3 pm and euthanized. Scale bar = 125 µm. […]
WT male C57BL/6J mice were purchased from the Jackson Lab (Bar Harbor, ME). Western diet (TD. 88137, Envigo Inc. Indianapolis, IN) contains 42% fat calories and 0.2% cholesterol. Mice were housed in micro-isolator cages with corn cob bedding under 7 am - 7 pm light cycle and 7 pm -7 am dark cycle. MLN4924 was prepared in 10% 2-hydroxypropyl-b-cyclodextrin to a final concentration of 3 mg/ml. All mice were fasted for 6 h from 9 am to 3 pm before euthanasia. All animals received humane care according to the criteria outlined in the “Guide for the Care and Use of Laboratory Animals.” All animal protocols were approved by the Institutional Animal Care and Use Committee at the University of Kansas Medical Center and the University of Oklahoma Health Sciences Center. […]
Human normal livers (less than 5% steatosis) and histologically confirmed NASH livers were obtained from either the University of Kansas Liver Center or the Liver Tissue Cell Distribution System (LTCDS) at the University of Minnesota. Human and mouse tissue samples were homogenized in 1XRIPA buffer containing 1% SDS and protease inhibitors. After incubation on ice for 1 hour, the samples were centrifugation and supernatant was transferred to a new tube. The protein lysate was mixed with equal volume of 2X laemmli buffer and incubated at 95° C. for 5 minutes and used for SDS-PAGE and immunoblotting. ImageJ software (NIH) was used to determine band intensity.
Total liver RNA was purified with Trizol (Sigma-Aldrich, St. Louis, MO). Total liver RNA was used in reverse transcription with Oligo dT primer and SuperScript III reverse transcriptase (Thermo Fisher Scientific, Grand Island, NY). Real-time PCR was performed on a Bio-Rad CFX384 Real-time PCR system with iQ SYBR Green Supermix (Bio-rad, Hercules, CA). The comparative CT (Ct) method was used to calculate the relative mRNA expression. The relative mRNA expression was expressed as 2 ^-ΔΔCt with the control group arbitrarily set as “1”. […]

Data set [2] has as its system male C57BL/6J mice fed C or WD. Kind of data set: Intervention study: MLN4924 initiated after 8 weeks of WD feeding. The procedure: MLN4924 (60 mg/kg, SQ) was given every other day for the last 8 weeks of the 16-week feeding. For both cohorts, body weight was measured weekly. Results are mean ±SEM. n=5-7. “*”, vs C+Veh; “#”, vs. WD+Veh, p<0.05. ns= Not significant.
Male C57BL/6J mice were fed chow or WD for 16 weeks. Vehicle or MLN4924 treatment (60 mg/kg, SQ, once every two days) was initiated after 8 weeks of WD feeding. Analyses were performed after 16 weeks of feeding. Results are mean ± SEM. n=5-8. “*”, vs C+Veh; “#”, vs. WD+Veh, p<0.05. Normalized densitometry was shown in low panel bar graphs.
Male C57BL/6J mice were purchased from the Jackson Laboratory (Bar Harbor, ME). Mice were fed a regular chow (C) diet or a Western diet (WD) that contains 42% fat calories and 0.2% cholesterol content (TD. 88137, Envigo Inc. Indianapolis, IN).
MLN4924 and TAS4464 were purchased from MedChemExpress (MCE, Monmouth Junction, NJ). For cell treatment, MLN4924 and TAS4464 were dissolved in DMSO. Cells were serum starved overnight and then treated with MLN4924, TAS4464 and/or insulin as indicated. For injection in mice, MLN4924 and TAS4464 were first dissolved in DMSO, which was further suspended in 10% (2-hydroxypropyl)-β-cyclodextrin (Sigma, St. Louis, MO). The final solution contains 1% DMSO. The subcutaneous injection volume is 200 µl/mouse.
Lipids were extracted in a mixture of chloroform: methanol (2:1; v: v), dried under nitrogen, and resuspended in isopropanol containing 1% triton X-100. Total cholesterol, free cholesterol and TG were measured with assay kits following the manufacturer’s instruction. Total cholesterol assay kit and TG assay kit were purchased from Pointe Scientific (Canton, MI).
as §1
Next investigated was the glucose lowering effect of CRL inhibition in mice rendered obese and insulin resistant by 16-weeks of WD feeding. […] Next conducted was an intervention study in which MLN4924 treatment was initiated after mice were fed WD for 8 weeks that rendered mice obese and insulin resistant. […] In summary, robust evidence is provided herein that pharmacological CRL inhibition is an effective approach to lowering hyperglycemia.

The mark [3] stands for this setting: chronic MLN4924, 60 mg/kg SQ once every 2 days.
Setting [4] is: WD 16 weeks, 60 mg/kg SQ every other day for last 8 weeks.

Consider `NS(=O)(=O)OC[C@@H]1C[C@@H](n2ccc3c(N[C@H]4CCc5ccccc54)ncnc32)C[C@@H]1O` [MLN4924, ((1S,2S,4R)-4-(4-((1S)-2,3-dihydro-1H-inden-1-ylamino)-7H-pyrrolo[2,3-d]pyrimidin-7-yl)-2-hydroxycyclopentyl) methyl sulfamate], for which, in the data set on male C57BL6/J mice (acute MLN4924 treatment), the plasma insulin is reported as ~ 0.55 ng/ml and the serum c-peptide was ~ 1.1 ng/ml. In addition, the serum c-peptide concentration entry in the data set on male C57BL6/J mice (chow diet, 60 mg/kg SQ at 9 am, 6 h fast) is listed as “elevated serum c-peptide concentration”. For the same compound, in data set [1] (WD-fed mice), the ALT result was “significantly reduced ALT”, the hepatic fat accumulation entry is recorded as “significant reduction of hepatic fat accumulation” and the plasma insulin levels result was “not reduced”. In data set [1] (WD-fed mice, intervention for 9 weeks), the blood glucose result is listed as “completely normalized blood glucose”. The liver histology entry in data set [1] (chow-fed MLN4924-treated mice) was “appeared normal”. The plasma insulin entry in data set [1] (chow-fed mice) is on record as “did not affect plasma insulin”. Besides, the “alanine aminotransferase (ALT) elevation” value in data set [1] (chow-fed mice, 9 weeks) was “did not cause alanine aminotransferase (ALT) elevation”. In data set [1] (chow-fed mice, intervention for 9 weeks), the hypoglycemia entry is given as “without causing undesirable hypoglycemia”. Also, in data set [1] (chronic MLN4924), the “hepatic glucose 6-phosphatase (G6Pase) gene” value is on record as “decreased hepatic gluconeogenic gene glucose 6-phosphatase (G6Pase)” and the “liver pyruvate kinase (L-PK) gene” value is “downregulation of liver pyruvate kinase (L-PK)”. Besides, in data set [1] (setting [3]), the “hepatic IRS protein” value is “increased IRS protein”; the hepatic cullin neddylation entry is “decreased hepatic cullin neddylation”; the “hepatic downstream AKT activation” value is “increased IRS protein and downstream AKT activation”. Further, in data set [1] (chronic MLN4924, 9 weeks), the tolerability / hepatotoxicity entry is “well tolerated and did not cause hepatotoxicity”. In addition, in data set [2] (setting [4]), the “blood glucose (6 h fast)” value is on record as “normalized blood glucose”, the “hepatic steatosis as measured by liver TGs” value is “lowered hepatic steatosis” and the “serum AST” value was “decreased serum AST”. Also, the “liver IRS protein abundance” value in data set [2] (WD 16 weeks, 60 mg/kg SQ once every two days after 8 weeks) is “increases liver IRS protein abundance”. Besides, in data set [2] (chronic WD-fed mice), the “hepatic AKT phosphorylation” value is recorded as “increased hepatic AKT phosphorylation”.
